Earlier results as cited in US7271167B2, “Compounds, compositions, and methods” (Cytokinetics, Inc., priority 2002, dated 2007).

Tested on: A549 cells
Settings: data provided by National Cancer Institute, Developmental Therapeutic Program
For `COc1cccc2c1C(=O)c1c(O)c3c(c(O)c1C2=O)C[C@@](O)(C(=O)CO)C[C@@H]3O[C@H]1C[C@H](N)[C@H](O)[C@H](C)O1` [doxorubicin], the GI50 is given as 63 nM. In the case of `CC(=O)O[C@H]1C(=O)[C@@]2(C)[C@H]([C@H](OC(=O)c3ccccc3)[C@]3(O)C[C@H](OC(=O)[C@H](O)[C@@H](NC(=O)c4ccccc4)c4ccccc4)C(C)=C1C3(C)C)[C@]1(OC(C)=O)CO[C@@H]1C[C@@H]2O` [paclitaxel], the GI50 is listed as 4 nM. For `NC(=O)NO` [hydroxyurea], the GI50 is given as 500000 nM. For `O=c1[nH]cc(F)c(=O)[nH]1` [5-fluorouracil], the GI50 is given as 1000 nM.
